In patent US10472352B2, “Rac inhibitors” (Geneyus LLC, priority 2017, dated 2019):
Where two headings read alike, the source gives them in different places.

Tested on: BT474 breast cancer cells
Experiment: BT474 Four (4) Day Cell Viability Assay
Type: cell-based
Conditions: BT474, 4 days; for viability at 2.5 µM: Homo sapiens, BT-474, 96 h, 32661 2.5 μM, read-out: cellular viability
Procedure: BT474 breast cancer cells that are Estrogen Receptor Positive and HER2+ were grown in 5% cFBS. 5,000 cells were seeded into each well of a 96-well plate and treated with escalating doses of lapatinib, fulvestrant, and 32661.

With `FC(F)(F)c1ccc2c(SCCCCCCn3cnc(CN4CCOCC4)c3)ccnc2c1` [Compound 0032661, 4-[[1-[6-[[7-(trifluoromethyl)-4-quinolyl]sulfanyl]hexyl]imidazol-4-yl]methyl]morpholine] the “cellular viability, addition of 32661 to lapatinib and fulvestrant” value was “enhanced the reduction of cellular viability”, the “cellular viability, addition of 32661 to lapatinib and fulvestrant” value (listed as 32661) was “further enhanced the reduction of cellular viability” and the viability at 2.5 µM (fulvestrant 0.0 nM, lapatinib 0.0 nM) was 96%. It also gave a viability at 2.5 µM (fulvestrant 0.0 nM, lapatinib 6.9 nM) of 85%, a viability at 2.5 µM (fulvestrant 0.0 nM, lapatinib 20.6 nM) of 80% and a viability at 2.5 µM (fulvestrant 0.0 nM, lapatinib 61.7 nM) of 81%. The viability at 2.5 µM (fulvestrant 0.0 nM, lapatinib 185.2 nM) was 83%, the viability at 2.5 µM (fulvestrant 0.0 nM, lapatinib 555.6 nM) was 73% and the viability at 2.5 µM (fulvestrant 0.0 nM, lapatinib 1666.7 nM) was 60%. For the same molecule, the viability at 2.5 µM (fulvestrant 0.0 nM, lapatinib 3333.0 nM) was 23%, the viability at 2.5 µM (fulvestrant 6.9 nM, lapatinib 0.0 nM) was 90% and the viability at 2.5 µM (fulvestrant 6.9 nM, lapatinib 6.9 nM) was 83%. It also gave a viability at 2.5 µM (fulvestrant 6.9 nM, lapatinib 20.6 nM) of 80%, a viability at 2.5 µM (fulvestrant 6.9 nM, lapatinib 61.7 nM) of 80% and a viability at 2.5 µM (fulvestrant 6.9 nM, lapatinib 185.2 nM) of 78%. It also gave a viability at 2.5 µM (fulvestrant 6.9 nM, lapatinib 555.6 nM) of 66%, a viability at 2.5 µM (fulvestrant 6.9 nM, lapatinib 1666.7 nM) of 55% and a viability at 2.5 µM (fulvestrant 6.9 nM, lapatinib 3333.0 nM) of 25%. For the same molecule, the viability at 2.5 µM (fulvestrant 20.6 nM, lapatinib 0.0 nM) was 87%, the viability at 2.5 µM (fulvestrant 20.6 nM, lapatinib 6.9 nM) was 77% and the viability at 2.5 µM (fulvestrant 20.6 nM, lapatinib 20.6 nM) was 79%. For the same molecule, the viability at 2.5 µM (fulvestrant 20.6 nM, lapatinib 61.7 nM) was 79%, the viability at 2.5 µM (fulvestrant 20.6 nM, lapatinib 185.2 nM) was 76% and the viability at 2.5 µM (fulvestrant 20.6 nM, lapatinib 555.6 nM) was 63%. It also gave a viability at 2.5 µM (fulvestrant 20.6 nM, lapatinib 1666.7 nM) of 54%, a viability at 2.5 µM (fulvestrant 20.6 nM, lapatinib 3333.0 nM) of 25% and a viability at 2.5 µM (fulvestrant 61.7 nM, lapatinib 0.0 nM) of 87%. It also gave a viability at 2.5 µM (fulvestrant 61.7 nM, lapatinib 6.9 nM) of 78%, a viability at 2.5 µM (fulvestrant 61.7 nM, lapatinib 20.6 nM) of 78% and a viability at 2.5 µM (fulvestrant 61.7 nM, lapatinib 61.7 nM) of 78%. For the same molecule, the viability at 2.5 µM (fulvestrant 61.7 nM, lapatinib 185.2 nM) was 73%, the viability at 2.5 µM (fulvestrant 61.7 nM, lapatinib 555.6 nM) was 63% and the viability at 2.5 µM (fulvestrant 61.7 nM, lapatinib 1666.7 nM) was 53%. It also gave a viability at 2.5 µM (fulvestrant 61.7 nM, lapatinib 3333.0 nM) of 21%, a viability at 2.5 µM (fulvestrant 185.2 nM, lapatinib 0.0 nM) of 84% and a viability at 2.5 µM (fulvestrant 185.2 nM, lapatinib 6.9 nM) of 81%. It also gave a viability at 2.5 µM (fulvestrant 185.2 nM, lapatinib 20.6 nM) of 82%, a viability at 2.5 µM (fulvestrant 185.2 nM, lapatinib 61.7 nM) of 77% and a viability at 2.5 µM (fulvestrant 185.2 nM, lapatinib 185.2 nM) of 73%. It also gave a viability at 2.5 µM (fulvestrant 185.2 nM, lapatinib 555.6 nM) of 63%, a viability at 2.5 µM (fulvestrant 185.2 nM, lapatinib 1666.7 nM) of 54% and a viability at 2.5 µM (fulvestrant 185.2 nM, lapatinib 3333.0 nM) of 18%. For the same molecule, the viability at 2.5 µM (fulvestrant 555.6 nM, lapatinib 0.0 nM) was 83%, the viability at 2.5 µM (fulvestrant 555.6 nM, lapatinib 6.9 nM) was 78% and the viability at 2.5 µM (fulvestrant 555.6 nM, lapatinib 20.6 nM) was 80%. The viability at 2.5 µM (fulvestrant 555.6 nM, lapatinib 61.7 nM) was 79%, the viability at 2.5 µM (fulvestrant 555.6 nM, lapatinib 185.2 nM) was 75% and the viability at 2.5 µM (fulvestrant 555.6 nM, lapatinib 555.6 nM) was 62%. It also gave a viability at 2.5 µM (fulvestrant 555.6 nM, lapatinib 1666.7 nM) of 48%, a viability at 2.5 µM (fulvestrant 555.6 nM, lapatinib 3333.0 nM) of 14% and a viability at 2.5 µM (fulvestrant 1666.7 nM, lapatinib 0.0 nM) of 75%. It also gave a viability at 2.5 µM (fulvestrant 1666.7 nM, lapatinib 6.9 nM) of 72%, a viability at 2.5 µM (fulvestrant 1666.7 nM, lapatinib 20.6 nM) of 73% and a viability at 2.5 µM (fulvestrant 1666.7 nM, lapatinib 61.7 nM) of 72%. For the same molecule, the viability at 2.5 µM (fulvestrant 1666.7 nM, lapatinib 185.2 nM) was 59%, the viability at 2.5 µM (fulvestrant 1666.7 nM, lapatinib 555.6 nM) was 47% and the viability at 2.5 µM (fulvestrant 1666.7 nM, lapatinib 1666.7 nM) was 24%. For the same molecule, the viability at 2.5 µM (fulvestrant 1666.7 nM, lapatinib 3333.0 nM) was 7%, the viability at 2.5 µM (fulvestrant 3333.0 nM, lapatinib 0.0 nM) was 52% and the viability at 2.5 µM (fulvestrant 3333.0 nM, lapatinib 6.9 nM) was 42%. The viability at 2.5 µM (fulvestrant 3333.0 nM, lapatinib 20.6 nM) was 34%, the viability at 2.5 µM (fulvestrant 3333.0 nM, lapatinib 61.7 nM) was 30% and the viability at 2.5 µM (fulvestrant 3333.0 nM, lapatinib 185.2 nM) was 26%. The viability at 2.5 µM (fulvestrant 3333.0 nM, lapatinib 555.6 nM) was 22%.
